Laboratory results: ChEMBL document CHEMBL5120881, “Silencing Tautomerization to Isolate Unstable Physalins from Physalis minima” (J Nat Prod, 2022)

Key:
A549 = test: Antiproliferative activity against human A549 cells assessed as reduction in cell viability incubated for 48 hrs by CCK8 assay; format: functional, cell-based; settings: A549, 48 h
SGC-7901 = test: Antiproliferative activity against human SGC-7901 cells assessed as reduction in cell viability incubated for 48 hrs by CCK8 assay; format: functional, cell-based; settings: SGC-7901, 48 h
HepG2 = test: Antiproliferative activity against human HepG2 cells assessed as reduction in cell viability incubated for 48 hrs by CCK8 assay; format: functional, cell-based; settings: HepG2, 48 h
RAW264.7 = test: Antiinflammatory activity in mouse RAW264.7 assessed as inhibition of LPS-stimulated NO production pretreated with LPS followed by compund addition by Griess reagent based microplate reader assay; format: functional, cell-based; settings: for IC50: Mus musculus, RAW264.7
[1] = Cytotoxicity against mouse RAW264.7 cells assessed as reduction in cell viability incubated for 48 hrs by CCK8 assay; format: toxicity, cell-based
[2] = Cytotoxicity against human L02 cells assessed as reduction in cell viability incubated for 48 hrs by CCK8 assay; format: toxicity, cell-based
MCF7 = test: Antiproliferative activity against human MCF7 cells assessed as reduction in cell viability incubated for 48 hrs by CCK8 assay; format: functional, cell-based; settings: MCF7, 48 h
[3] = Cytotoxicity against human L02 cells assessed as cell viability at 10 uM incubated for 48 hrs by CCK8 assay; format: toxicity, cell-based; settings: read-out: Activity
[4] = Cytotoxicity against mouse RAW264.7 cells assessed as cell viability at 10 uM incubated for 48 hrs by CCK8 assay; format: toxicity, cell-based; settings: read-out: Activity

Structure (SMILES)	IC50 (A549) [µM]	IC50 (SGC-7901) [µM]	IC50 (HepG2) [µM]	IC50 (RAW264.7) [µM]	IC50 (MCF7) [µM]	IC50 at 48 h [1] [µM]	IC50 at 48 h [2] [µM]	viability at 48 h, 10 µM [3] [%]	inhibition (INH) (RAW264.7) [%]	viability at 48 h, 10 µM [4] [%]
C[C@]12C(=O)C=CC=C1[C@H](O)C[C@@H]1[C@@H]2CC[C@]2(O)C(=O)O[C@@]3(C)[C@H]4C[C@@]5(C)[C@@H]6C(=O)[C@@]1(OC[C@@]5(O)C(=O)O4)O[C@@]632	> 50	> 50	> 50	6.4	> 50	> 50	> 50			
C[C@@]12C[C@H]3OC(=O)[C@@H]1CO[C@]14O[C@@]5([C@H]2C1=O)[C@@]3(C)OC(=O)[C@@]5(O)CC[C@H]1[C@H]4C[C@@H](O)[C@@]2(O)CC=CC(=O)[C@]12C	> 50	> 50	> 50	49.8	> 50	> 50	> 50			
C[C@@]12C[C@H]3OC(=O)[C@@H]1CO[C@@]14O[C@@]5([C@H]2C1=O)[C@@]3(C)OC(=O)[C@@]5(O)CC[C@H]1[C@H]4C[C@@H](O)[C@@]2(OC(=O)c3cccnc3)CC=CC(=O)[C@]12C	> 50	> 50	> 50	13.6	> 50	> 50	> 50			
COC(=O)C[C@@H](O)C(=O)O[C@]12CC=CC(=O)[C@]1(C)[C@H]1CC[C@]3(O)C(=O)O[C@@]4(C)[C@H]5C[C@]6(C)[C@@H](CO[C@]7(O[C@@]43[C@H]6C7=O)[C@@H]1C[C@H]2O)C(=O)O5	> 50	> 50	> 50	32.3	> 50	> 50	> 50			
O=C(CCCCCCC(=O)Nc1ccccc1)NO [VORINOSTAT]								92.5		87
C[C@@]12C[C@H]3OC(=O)[C@@H]1CO[C@]14O[C@@]5([C@H]2C1=O)[C@@]3(C)OC(=O)[C@@]5(O)CC[C@H]1[C@H]4C[C@H]2O[C@]23CC=CC(=O)[C@]13C	> 50	> 50	> 50	7.9	> 50	> 50	> 50			
CO[C@]12CC=CC(=O)[C@]1(C)[C@H]1CC[C@]3(O)C(=O)O[C@@]4(C)[C@H]5C[C@]6(C)[C@@H](CO[C@@]7(O[C@@]43[C@H]6C7=O)[C@@H]1C[C@H]2O)C(=O)O5	> 50	> 50	> 50	75.3	> 50	> 50	> 50			
C[C@@]12C[C@H]3OC(=O)[C@@H]1CO[C@@]14O[C@@]5([C@H]2C1=O)[C@@]3(C)OC(=O)[C@@]5(O)CC[C@H]1[C@H]4C[C@H](O)[C@]2(O)CC=CC(=O)[C@]12C	> 50	> 50	> 50	43.8	> 50	> 50	> 50			
COC(=O)C(C)(O)[C@@]1(C)C[C@@H](O)[C@]2(C)OC(=O)[C@@]3(O)CC[C@H]4[C@@H](C[C@@H](O)[C@@]5(O)CC=CC(=O)[C@]45C)[C@]4(O)O[C@@]23[C@H]1C4=O (stereo partly drawn)	> 50	> 50	> 50	2.9	> 50	> 50	> 50			
C[C@]12C(=O)C=CC=C1[C@@H](O)C[C@@H]1[C@@H]2CC[C@@]2(O)C(=O)O[C@@]3(C)[C@H]4C[C@]5(C)[C@@H](CO[C@@]16O[C@]23[C@H]5C6=O)C(=O)O4 [PHYSALIN G]	> 50	> 50	> 50	13.5	> 50	> 50	> 50			

More lines, main results first:

IC50 (A549) [µM]	IC50 (SGC-7901) [µM]	IC50 (HepG2) [µM]	IC50 (RAW264.7) [µM]	IC50 (MCF7) [µM]	Structure (SMILES)	IC50 at 48 h [1] [µM]	IC50 at 48 h [2] [µM]	viability at 48 h, 10 µM [3] [%]	inhibition (INH) (RAW264.7) [%]	viability at 48 h, 10 µM [4] [%]
> 50	> 50	> 50	9.5	> 50	C[C@]12C(=O)C=CCC1=CC[C@@H]1[C@@H]2[C@H]2C[C@]3(O)C(=O)O[C@@]4(C)[C@H]5C[C@@]6(C)[C@@H]7[C@@]2(O)[C@@]1(OC[C@H]6C(=O)O5)O[C@@]743	> 50	> 50			
> 50	> 50	> 50	56.6	> 50	C[C@@H]1C(=O)O[C@@H]2C[C@@]1(C)[C@@H]1C(=O)[C@@]3(O)O[C@]14[C@@]2(C)OC(=O)[C@@]4(O)CC[C@H]1[C@H]3C[C@@H](O)[C@@]2(O)CC=CC(=O)[C@]12C	> 50	> 50			
2	1.1	4.9		2.1	C=C1C(=O)O[C@@H]2C[C@@]1(C)[C@@H]1C(=O)[C@@]3(O)O[C@]14[C@@]2(C)OC(=O)[C@@]4(O)CC[C@H]1[C@H]3C[C@@H](O)[C@@]2(Cl)CC=CC(=O)[C@]12C			98.1	<50	90.1
12.2	12.1	16.8		10.5	C[C@]12C(=O)C=CCC1=CC[C@@H]1[C@@H]2CC[C@]2(O)C(=O)O[C@@]3(C)[C@H]4C[C@@]5(C)[C@@H]6C(=O)[C@@]1(OC[C@@]5(O)C(=O)O4)O[C@@]632			97.3		95.5
> 50	> 50	> 50	43.2	> 50	C[C@]12OC(=O)[C@@]3(O)CC[C@H]4[C@@H](C[C@@H](O)[C@]5(O)CC=CC(=O)[C@]45C)[C@@]45OC[C@H]6C(=O)O[C@@H]1C[C@@]6(CO)[C@H](C4=O)[C@]23O5	> 50	> 50			
> 50	> 50	> 50	17.5	> 50	C[C@]12C(=O)CC=CC1=CC[C@@H]1[C@@H]2CC[C@]2(O)C(=O)O[C@@]3(C)[C@H]4C[C@@]5(C)[C@@H]6C(=O)[C@@]1(OC[C@@]5(O)C(=O)O4)O[C@@]632	> 50	> 50			
> 50	> 50	> 50	3.1	> 50	COC(=O)CCC(=O)O[C@]12CC=CC(=O)[C@]1(C)[C@H]1CC[C@]3(O)C(=O)O[C@@]4(C)[C@H]5C[C@]6(C)[C@@H](CO[C@]7(O[C@@]43[C@H]6C7=O)[C@@H]1C[C@H]2O)C(=O)O5	> 50	> 50			
> 50	> 50	> 50	9.5	> 50	C=C1C(=O)O[C@@H]2C[C@@]1(C)[C@@H]1C(=O)[C@@]3(O)O[C@]14[C@@]2(C)OC(=O)[C@@]4(O)CC[C@H]1[C@H]3[C@H](O)C=C2CC=CC(=O)[C@@]21C	> 50	> 50			
> 50	> 50	> 50	3.6	> 50	C[C@@]12C[C@H]3OC(=O)[C@@H]1CO[C@@]14O[C@]56[C@H]2[C@]1(O)[C@H](C[C@]5(O)C(=O)O[C@@]36C)[C@H]1[C@H]4CC[C@]2(O)CC=CC(=O)[C@]12C	> 50	> 50			
> 50	> 50	> 50	28	> 50	COC(=O)C[C@H](O)C(=O)O[C@]12CC=CC(=O)[C@]1(C)[C@H]1CC[C@]3(O)C(=O)O[C@@]4(C)[C@H]5C[C@]6(C)[C@@H](CO[C@]7(O[C@@]43[C@H]6C7=O)[C@@H]1C[C@H]2O)C(=O)O5	> 50	> 50			
> 50	> 50	> 50	9	> 50	C[C@@]12C[C@H]3OC(=O)[C@@H]1CO[C@@]14O[C@]56[C@H]2[C@]1(O)[C@H](C[C@]5(O)C(=O)O[C@@]36C)[C@H]1[C@H]4CC(O)[C@]2(O)CC=CC(=O)[C@]12C (stereo partly drawn)	> 50	> 50			
> 50	> 50	> 50	23.8	> 50	CO[C@]12C=CCC(=O)[C@]1(C)[C@H]1CC[C@]3(O)C(=O)O[C@@]4(C)[C@H]5C[C@]6(C)[C@@H](CO[C@]7(O[C@@]43[C@H]6C7=O)[C@@H]1C[C@H]2O)C(=O)O5	> 50	> 50			
			42.8		CNC(=N)NCCC[C@H](N)C(=O)OC					
> 50	> 50	> 50	78.7	> 50	C[C@@]12C[C@H]3OC(=O)[C@@H]1CO[C@]14C(=O)O[C@@]5([C@H]21)[C@@]3(C)OC(=O)[C@@]5(O)CC[C@H]1[C@H]4CC[C@@]2(O)CC=CC(=O)[C@]12C	> 50	> 50			
> 50	> 50	> 50	14.9	> 50	C[C@@]12C[C@H]3OC(=O)[C@]1(O)CO[C@@]14O[C@@]5([C@H]2C1=O)[C@@]3(C)OC(=O)[C@@]5(O)CC[C@H]1[C@H]4C[C@H](O)[C@]2(O)CC=CC(=O)[C@]12C	> 50	> 50			
